Measured values taken from US12065445B2, “CDK2 inhibitors and methods of using the same” (Cedilla Therapeutics, Inc., priority 2021, dated 2024).

Key:
Kuramochi cells = assay: BrdU Cell Proliferation Assay; type: cell-based; details: read-out: BrdU - KURAMOCHI.1: IC50
In short: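 Kuramochi cells were seeded at 2,000 cells/well, adhered overnight, then treated with a 10-point, 3-fold compound dilution series for 4 days. Proliferation was measured by a 1-hour BrdU pulse, anti-BrdU peroxidase colorimetric ELISA and 450 nm absorbance. Values were background-subtracted and normalized to DMSO wells.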

[1] = tested on: Kuramochi cells labeled with mApple-H2B; assay: IncuCyte Cell Proliferation Assay; type: cell-based; details: 72 h
Procedure: IncuCyte® assay was used to measure the effect of disclosed compounds on cell proliferation. Fluorescent microscopy images of cells were taken immediately after compound treatment and 72 hours later. Image analysis software was used to obtain cell counts as a function of compound concentration. Kuramochi cells labeled with mApple-H2B were seeded on 384-well assay-ready plates. Plates were placed in an IncuCyte® (Sartorius) and scanned at 0 and 72 hours. IncuCyte® software was used to count the number of fluorescent nuclei in each well. The fold change in cell count from 0 to 72 hours in wells treated with increasing compounds concentrations (10 pts, ½ log dilution, 20 μM top concentration) was normalized to DMSO control wells. The normalized cell counts were fit with dose response curves and a […] was calculated.

| SMILES | IC50 (Kuramochi cells) [µM] | IC50 [1] [µM] |
| --- | --- | --- |
| CO[C@H]1COCC[C@H]1NC(=O)[C@@H]1CN(C(=O)c2cnn(Cc3ccccc3)c2)CC12CN(C(=O)[C@H]1CC1(C)C)C2 [I-134A] | > 10 | > 20 |
| CNC(=O)[C@@H](NC(=O)[C@@H]1CN(C(=O)c2nncs2)CC12CN(C(=O)[C@H]1CC1(C)C)C2)[C@@H](C)OCC1CCCCC1 [I-246] | 0.5 to 5 | 5 to 20 |
| C[C@@H]1C[C@H](C)CN(C(=O)[C@@H](NC(=O)C2CN(C(=O)c3cnn(Cc4ccccc4)c3)CC23CN(C(=O)[C@H]2CC2(C)C)C3)[C@@H](C)OCC2CCCCC2)C1 (some centres unmarked) [I-104] | ≤ 0.5 | 0.5 to 5 |
| Cc1ccc(CNC(=O)[C@@H]2CN(C(=O)c3cnn(Cc4ccccn4)c3)CC23CN(C(=O)[C@H]2CC2(C)C)C3)nn1 [I-417] |  | > 20 |
| C[C@@H](OCC12CCC(CC1)OC2)[C@H](NC(=O)[C@@H]1CN(C(=O)c2cnco2)CC12CN(C(=O)C(C)(C)C1CC1)C2)C(C)(C)O [I-448] |  | > 20 |
| CNC(=O)[C@@H](NC(=O)[C@@H]1CN(C(=O)c2cnn(Cc3ccccc3)c2)CC12CN(C(=O)[C@H]1CC1(C)C)C2)C(C)(C)OCc1ccccc1 [I-393] |  | 5 to 20 |
| C[C@@H](OCC1CCCCC1)[C@H](NC(=O)[C@@H]1CN(C(=O)c2cnn(Cc3ccccc3)c2)CC12CN(C(=O)[C@H]1CC1(C)C)C2)C(=O)O [I-477] |  | > 20 |
| COC1CCN(C(=O)[C@@H](NC(=O)[C@@H]2CN(C(=O)c3sc(C)nc3C)CC23CN(C(=O)[C@H]2CC2(C)C)C3)[C@@H](C)OCC23CCC(CC2)OC3)CC1 [I-451] |  | 5 to 20 |
| C[C@@H](OCc1ccccc1)[C@H](NC(=O)[C@@H]1CN(C(=O)c2cnn(Cc3ccccc3)c2)CC12CN(C(=O)[C@H]1CC1(C)C)C2)C(=O)N(C)C [I-409] |  | 0.5 to 5 |
| CNC(=O)[C@@H](NC(=O)[C@H]1CN(C(=O)c2cnn(Cc3ccccc3)c2)CC12CN(C(=O)OC(C)(C)C)C2)[C@@H](C)OCc1ccccc1 [I-3B] |  | > 20 |
| CC(C)(O)C(NC(=O)[C@@H]1CN(C(=O)c2cnco2)CC12CN(C(=O)[C@H]1CC1(C)C)C2)c1cccc(C2CCOCC2)n1 (some centres unmarked) [I-436] |  | > 20 |
| [2H]C([2H])([2H])NC(=O)C(NC(=O)[C@@H]1CN(C(=O)c2cncs2)CC12CN(C(=O)[C@H]1CC1(C)C)C2)c1cccc(N2CCOCC2)n1 (some centres unmarked) [I-18] |  | > 20 |
| C[C@@H](OC(C)(C)C1CCCCC1)[C@H](NC(=O)[C@@H]1CN(C(=O)c2cncs2)CC12CN(C(=O)[C@H]1CC1(C)C)C2)C(=O)N1CCCCC1 [I-395] |  | 0.5 to 5 |
| C[C@@H](OCC12CCC(CC1)OC2)[C@H](NC(=O)[C@@H]1CN(C(=O)c2sc(Cl)nc2Cl)CC12CN(C(=O)C(C)(C)C1CC1)C2)C(C)(C)O [I-471] |  | > 20 |
| C[C@@H](OCC1CCC(F)(F)CC1)[C@@H](COC1CCC(F)(F)CC1)NC(=O)[C@@H]1CN(C(=O)c2cncs2)CC12CN(C(=O)[C@H]1CC1(C)C)C2 [I-315] |  | 0.5 to 5 |
| C[C@@H](OCC1CCOCC1)[C@H](NC(=O)[C@@H]1CN(C(=O)c2cncs2)CC12CN(C(=O)[C@H]1CC1(C)C)C2)C(=O)N1CCC(n2ccnc2)CC1 [I-440] |  | > 20 |
| C[C@@H](OCC1CCCCC1)[C@H](NC(=O)[C@@H]1CN(C(=O)c2cnn(Cc3ccccc3)c2)CC12CN(C(=O)[C@H]1CC1(C)C)C2)C(=O)N1CCC(c2ccncc2)CC1 [I-300] |  | ≤ 0.5 |
| C[C@@H](OCC12CCC(CC1)OC2)[C@H](NC(=O)[C@@H]1CN(C(=O)c2cncs2)CC12CN(C(=O)[C@H]1CC1(C)C)C2)C(=O)N1CCC[C@H](COC(F)(F)F)C1 [I-460] |  | 0.5 to 5 |
| C[C@@H](OCc1ccc(Cl)cc1)[C@@H](CO)NC(=O)[C@@H]1CN(C(=O)c2cncs2)CC12CN(C(=O)[C@H]1CC1(C)C)C2 [I-404] |  | > 20 |
| C[C@@H](OCC1CCOCC1)[C@@H](COC1CCC(F)(F)CC1)NC(=O)[C@@H]1CN(C(=O)c2cncs2)CC12CN(C(=O)[C@H]1CC1(C)C)C2 [I-312] |  | 0.5 to 5 |
| CNC(=O)C(NC(=O)[C@@H]1CN(C(=O)c2cncs2)CC12CN(C(=O)[C@H]1CC1(C)C)C2)c1ccc(C)nn1 (some centres unmarked) [I-420] |  | > 20 |
| C[C@@H](OCC1CCCCC1)[C@@H](COC1CCNCC1)NC(=O)[C@@H]1CN(C(=O)c2cncs2)CC12CN(C(=O)[C@H]1CC1(C)C)C2 [I-329] |  | 0.5 to 5 |

| SMILES | IC50 (Kuramochi cells) [µM] | IC50 [1] [µM] |
| --- | --- | --- |
| C[C@@H](OCC12CCC(CC1)OC2)[C@H](NC(=O)[C@@H]1CN(C(=O)c2cncs2)CC12CN(C(=O)[C@H]1CC1(C)C)C2)C(=O)N1CCC(C(F)(F)F)CC1 [I-454, (S)—N-((2S,3R)-3-((2-oxabicyclo[2.2.2]octan-4-yl)methoxy)-1-oxo-1-(4-(trifluoromethyl)piperidin-1-yl)butan-2-yl)-2-((S)-2,2-dimethylcyclopropane-1-carbonyl)-6-(thiazole-5-carbonyl)-2,6-diazaspiro[3.4]octane-8-carboxamide] |  | 0.5 to 5 |
| Cc1ccc(CNC(=O)[C@@H]2CN(C(=O)c3cnn(Cc4ccncc4F)c3)CC23CN(C(=O)[C@H]2CC2(C)C)C3)nn1 [I-35] |  | > 20 |
| CC1(C)C[C@@H]1C(=O)N1CC2(CN(C(=O)c3cnn(Cc4ccccc4)c3)C[C@H]2C(=O)NC[C@H]2CC[C@@H](C)CC2)C1 [I-388] |  | 0.5 to 5 |
| Cc1ccc(CNC(=O)[C@@H]2CN(C(=O)c3cnn(Cc4ccccc4)c3)CC23CN(C(=O)C(C)(C)C2CC2)C3)nn1 [I-387, (S)-6-(1-benzyl-1H-pyrazole-4-carbonyl)-2-(2-cyclopropyl-2-methylpropanoyl)-N-((6-methylpyridazin-3-yl)methyl)-2,6-diazaspiro[3.4]octane-8-carboxamide] |  | > 20 |
| C[C@@H](OCC1CCCCC1)[C@H](NC(=O)[C@@H]1CN(C(=O)c2cnn(Cc3ccccc3)c2)CC12CN(C(=O)[C@H]1CC1(C)C)C2)C(=O)N1CCC(c2nnco2)CC1 [I-449] |  | ≤ 0.5 |
| C[C@@H](OCC1CCC(F)(F)CC1)[C@H](NC(=O)[C@@H]1CN(C(=O)c2cn[nH]c2)CC12CN(C(=O)[C@H]1CC1(C)C)C2)C(=O)N1CCOCC1 [I-301, (S)—N-((2S,3R)-3-((4,4-difluorocyclohexyl)methoxy)-1-morpholino-1-oxobutan-2-yl)-2-((S)-2,2-dimethylcyclopropane-1-carbonyl)-6-(1H-pyrazole-4-carbonyl)-2,6-diazaspiro[3.4]octane-8-carboxamide] |  | > 20 |
| COC[C@H]1CCCN(C(=O)[C@@H](NC(=O)[C@@H]2CN(C(=O)c3cncs3)CC23CN(C(=O)[C@H]2CC2(C)C)C3)[C@@H](C)OC[C@H]2CC[C@@H](OC)CC2)C1 [I-408] |  | 0.5 to 5 |
| COC[C@H]1CCCN(C(=O)[C@@H](NC(=O)[C@@H]2CN(C(=O)c3cncs3)CC23CN(C(=O)[C@H]2CC2(C)C)C3)[C@@H](C)OCc2ccc(OC(F)(F)F)cc2)C1 [I-320] |  | 0.5 to 5 |
| CNC(=O)C(NC(=O)[C@@H]1CN(C(=O)c2cncs2)CC12CN(C(=O)C(C)(C)C1CC1)C2)c1cccc(C2CCOCC2)n1 (some centres unmarked) [I-338] |  | > 20 |
| C[C@@H](OCC1CCCCC1)C(NC(=O)[C@@H]1CN(C(=O)c2cncs2)CC12CN(C(=O)[C@H]1CC1(C)C)C2)c1nnco1 (stereo in doubt) [I-415, (S)—N-((1S,2R)-2-(cyclohexylmethoxy)-1-(1,3,4-oxadiazol-2-yl)propyl)-2-((S)-2,2-dimethylcyclopropane-1-carbonyl)-6-(thiazole-5-carbonyl)-2,6-diazaspiro[3.4]octane-8-carboxamide] |  | 0.5 to 5 |
| C[C@@H](OCC1(C(F)(F)F)CC1)[C@H](NC(=O)[C@H]1CN(C(=O)c2cncs2)CC12CN(C(=O)[C@H]1CC1(C)C)C2)C(=O)N1CCCCC1 [I-292] |  | > 20 |
| C[C@@H](OCC1CCOCC1)[C@H](NC(=O)[C@@H]1CN(C(=O)c2cn[nH]c2)CC12CN(C(=O)[C@H]1CC1(C)C)C2)C(=O)N1CCC(F)(F)CC1 [I-297] |  | > 20 |
| CNC(=O)[C@@H](NC(=O)[C@@H]1CN(C(=O)c2cncs2)CC12CN(CC1COC1)C2)[C@@H](C)OCC12CCC(CC1)OC2 [I-348] |  | > 20 |
| C[C@@H](OCC1CCCCC1)[C@H](NC(=O)[C@@H]1CN(C(=O)c2cnn(Cc3ccccc3)c2)CC12CN(C(=O)[C@H]1CC1(C)C)C2)C(=O)N1CCC(c2cnc[nH]2)CC1 [I-438] |  | 0.5 to 5 |
| C[C@@H](OCC1CCCCC1)[C@H](NC(=O)[C@@H]1CN(C(=O)c2cnn(Cc3ccccc3)c2)CC12CN(C(=O)[C@H]1CC1(C)C)C2)C(=O)N1CCC(c2nccs2)CC1 [I-445] |  | ≤ 0.5 |
| C[C@@H](OCC1CCC(F)(F)CC1)[C@@H](COC1CCOCC1)NC(=O)[C@@H]1CN(C(=O)c2cncs2)CC12CN(C(=O)[C@H]1CC1(C)C)C2 [I-314] |  | ≤ 0.5 |
| CNC(=O)[C@@H](NC(=O)[C@@H]1CN(C(=O)c2cnn(Cc3ccccc3)c2)CC12CN(C(=O)[C@H]1CC1(C)C)C2)[C@@H](C)OC[C@H]1CC[C@H](O)CC1 [I-413] |  | > 20 |
| CC(O[C@H](C)[C@@H](COC1CCC(F)(F)CC1)NC(=O)[C@@H]1CN(C(=O)c2cncs2)CC12CN(C(=O)[C@H]1CC1(F)F)C2)C1CCC(F)(F)CC1 (some centres unmarked) [I-316] |  | > 20 |
| C[C@@H](OCC1CCCCC1)[C@H](NC(=O)[C@@H]1CN(C(=O)c2cnn(Cc3ccccc3)c2)CC12CN(C(=O)[C@H]1CC1(C)C)C2)C(=O)N1CC[C@H]1CN [I-310] |  | 5 to 20 |
| C[C@@H](OCc1ccc(C(F)(F)F)cc1)[C@H](NC(=O)[C@@H]1CN(C(=O)c2cncs2)CC12CN(C(=O)[C@H]1CC1(C)C)C2)C(=O)N1C2CCC1COC2 [I-470] |  | 0.5 to 5 |
| CNC(=O)[C@@H](NC(=O)[C@]1(C)CN(C(=O)c2cnn(Cc3ccccc3)c2)CC12CN(C(=O)[C@H]1CC1(C)C)C2)[C@@H](C)OCC1CCCCC1 [I-499A] |  | > 20 |
| CC1(C)C[C@@H]1C(=O)N1CC2(CN(C(=O)c3cncs3)C[C@H]2C(=O)NC(c2cccc(C3CCCCC3)n2)C2CCCO2)C1 (some centres unmarked) [I-495] |  | 0.5 to 5 |
